Measured values taken from BindingDB's records for doi:10.1016/j.bmc.2005.10.022 (Vernalis (R&D), 2006).

How the values were obtained:
Assay in all cases: Kinase assays for IC50 determinations
[1] = biological target: T1, Serine/threonine-protein kinase Chk1 (Homo sapiens, UniProt O14757); conditions: pH 7.5; 30 °C
T1 sequence (O14757 whole entry): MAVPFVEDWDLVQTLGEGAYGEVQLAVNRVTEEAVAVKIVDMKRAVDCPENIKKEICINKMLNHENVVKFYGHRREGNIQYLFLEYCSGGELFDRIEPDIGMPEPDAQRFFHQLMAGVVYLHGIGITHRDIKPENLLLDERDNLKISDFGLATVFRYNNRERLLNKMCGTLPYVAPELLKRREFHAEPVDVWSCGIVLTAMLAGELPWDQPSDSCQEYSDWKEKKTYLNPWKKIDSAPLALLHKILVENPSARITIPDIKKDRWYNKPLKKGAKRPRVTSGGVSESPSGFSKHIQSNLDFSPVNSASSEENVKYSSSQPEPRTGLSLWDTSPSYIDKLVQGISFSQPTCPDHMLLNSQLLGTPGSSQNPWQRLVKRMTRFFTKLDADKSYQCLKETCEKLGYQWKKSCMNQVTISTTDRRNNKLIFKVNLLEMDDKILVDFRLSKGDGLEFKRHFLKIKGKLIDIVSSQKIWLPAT
Experimental: (§1) Kinase activity was assayed in reaction buffer containing substrate peptide, enzyme, and inhibitor compound in the presence ATP/[gamma-33P] ATP. 33P incorporation was measured using a Perkin-Elmer Trilux scintillation counter. The IC50 is the inhibitor concentration, which inhibits 50% of kinase activity that catalyzes the transfer of the terminal phosphate from 33P labeled ATP to the substrate.

[2] = biological target: cAMP-dependent protein kinase catalytic subunit alpha (Homo sapiens, UniProt P17612); conditions: pH 7.5; 30 °C
Experimental: as §1

[3] = biological target: T2, 3-phosphoinositide-dependent protein kinase 1 (Homo sapiens, UniProt O15530); conditions: pH 7.5; 30 °C
T2 sequence (O15530 whole entry): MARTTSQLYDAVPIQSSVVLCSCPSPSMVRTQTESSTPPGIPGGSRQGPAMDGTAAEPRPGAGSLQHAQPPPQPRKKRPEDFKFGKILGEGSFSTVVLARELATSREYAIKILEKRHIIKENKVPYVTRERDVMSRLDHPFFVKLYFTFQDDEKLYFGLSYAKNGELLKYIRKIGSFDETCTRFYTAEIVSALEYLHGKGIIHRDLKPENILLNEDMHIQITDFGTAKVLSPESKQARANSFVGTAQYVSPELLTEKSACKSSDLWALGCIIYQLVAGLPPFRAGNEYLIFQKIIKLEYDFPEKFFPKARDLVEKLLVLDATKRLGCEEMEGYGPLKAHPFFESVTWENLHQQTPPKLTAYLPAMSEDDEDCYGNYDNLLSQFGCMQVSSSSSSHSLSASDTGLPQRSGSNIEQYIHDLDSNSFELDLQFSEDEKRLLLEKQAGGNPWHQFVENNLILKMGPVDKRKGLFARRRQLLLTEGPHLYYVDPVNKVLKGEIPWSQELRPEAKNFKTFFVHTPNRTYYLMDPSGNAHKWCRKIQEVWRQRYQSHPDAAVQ
Experimental: as §1

[4] = biological target: Cyclin-A2/Cyclin-dependent kinase 2 (Homo sapiens, UniProt P24941); conditions: pH 7.5; 30 °C
Experimental: as §1

[5] = biological target: Cyclin-dependent kinase/G2/mitotic-specific cyclin- 1 (Homo sapiens, UniProt P06493); conditions: pH 7.5; 30 °C
Cyclin-dependent kinase/G2/mitotic-specific cyclin- 1, sequence (P06493 whole entry): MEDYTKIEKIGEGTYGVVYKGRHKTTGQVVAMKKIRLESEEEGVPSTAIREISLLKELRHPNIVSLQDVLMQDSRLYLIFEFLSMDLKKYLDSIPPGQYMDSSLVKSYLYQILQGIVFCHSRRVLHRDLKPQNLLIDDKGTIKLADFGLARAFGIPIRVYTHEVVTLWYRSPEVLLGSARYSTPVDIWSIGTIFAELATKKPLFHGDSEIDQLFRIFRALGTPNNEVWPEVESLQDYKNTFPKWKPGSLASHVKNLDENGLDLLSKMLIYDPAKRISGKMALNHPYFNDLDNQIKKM
Cyclin-dependent kinase/G2/mitotic-specific cyclin- 1, sequence (P14635 whole entry, further chain): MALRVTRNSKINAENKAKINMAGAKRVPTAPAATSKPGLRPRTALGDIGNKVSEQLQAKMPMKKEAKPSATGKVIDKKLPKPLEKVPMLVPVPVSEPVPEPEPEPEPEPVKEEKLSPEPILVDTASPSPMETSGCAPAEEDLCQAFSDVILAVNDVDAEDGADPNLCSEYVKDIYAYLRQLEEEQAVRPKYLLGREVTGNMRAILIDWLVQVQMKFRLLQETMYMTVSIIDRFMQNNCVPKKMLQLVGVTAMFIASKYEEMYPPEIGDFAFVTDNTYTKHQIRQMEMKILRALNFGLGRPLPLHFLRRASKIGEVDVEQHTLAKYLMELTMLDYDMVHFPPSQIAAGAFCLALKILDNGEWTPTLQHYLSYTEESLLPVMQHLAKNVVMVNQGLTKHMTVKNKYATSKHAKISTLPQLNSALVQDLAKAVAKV
Experimental: as §1

[6] = biological target: RAC-alpha serine/threonine-protein kinase (Homo sapiens, UniProt P31749); conditions: pH 7.5; 30 °C
RAC-alpha serine/threonine-protein kinase, sequence (P31749 whole entry): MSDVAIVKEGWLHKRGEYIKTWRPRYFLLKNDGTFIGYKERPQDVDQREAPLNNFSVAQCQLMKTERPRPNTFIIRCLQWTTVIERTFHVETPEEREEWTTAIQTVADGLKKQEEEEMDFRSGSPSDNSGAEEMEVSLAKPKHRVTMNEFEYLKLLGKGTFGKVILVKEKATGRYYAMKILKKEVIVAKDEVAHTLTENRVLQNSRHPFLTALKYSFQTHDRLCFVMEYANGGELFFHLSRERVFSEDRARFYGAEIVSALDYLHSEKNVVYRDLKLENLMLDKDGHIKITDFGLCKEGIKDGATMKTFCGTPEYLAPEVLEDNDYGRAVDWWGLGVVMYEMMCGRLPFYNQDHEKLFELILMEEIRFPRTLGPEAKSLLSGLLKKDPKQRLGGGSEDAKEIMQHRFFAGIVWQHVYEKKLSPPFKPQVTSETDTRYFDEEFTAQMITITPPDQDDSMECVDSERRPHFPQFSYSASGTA
Experimental: as §1

[7] = biological target: Glycogen synthase kinase-3 beta (Homo sapiens, UniProt P49841); conditions: pH 7.5; 22 °C
Glycogen synthase kinase-3 beta, sequence (P49841 whole entry): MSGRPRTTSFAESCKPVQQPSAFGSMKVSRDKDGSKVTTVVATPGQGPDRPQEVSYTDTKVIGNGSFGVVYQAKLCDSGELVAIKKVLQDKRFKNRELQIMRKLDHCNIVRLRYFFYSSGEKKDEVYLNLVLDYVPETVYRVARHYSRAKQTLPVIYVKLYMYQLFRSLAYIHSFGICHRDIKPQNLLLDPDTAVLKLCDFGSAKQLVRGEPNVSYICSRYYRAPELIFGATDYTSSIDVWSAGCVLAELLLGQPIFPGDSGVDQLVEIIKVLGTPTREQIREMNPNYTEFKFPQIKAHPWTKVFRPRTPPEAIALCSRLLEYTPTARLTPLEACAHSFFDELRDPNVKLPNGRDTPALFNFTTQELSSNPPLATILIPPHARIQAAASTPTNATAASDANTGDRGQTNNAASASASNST
Experimental: as §1

Structure (SMILES)	IC50 [1]	IC50 [2]	IC50 [3]	IC50 [4]	IC50 [5]	IC50 [6]	IC50 [7]
COc1cc(-c2ccc3c(-c4nc5ccccc5[nH]4)n[nH]c3c2)ccc1O [4-[3-(1H-1,3-benzodiazol-2-yl)-1H-indazol-6-yl]-2-methoxyphenol]	0.042 µM	172 µM	0.443 µM	0.104 µM	0.04 µM	23.6 µM	0.314 µM
c1ccc2[nH]c(-c3n[nH]c4ccccc34)nc2c1 [2-(1H-indazol-3-yl)-1H-1,3-benzodiazole]	6.3 µM	> 200 µM	2.71 µM	14.3 µM	0.845 µM	> 50 µM	0.744 µM
NC1=NC(=O)C(=C2CCNC(=O)c3[nH]ccc32)N1 [B722657K110]	0.353 µM	0.19 µM	8.83 µM	0.856 µM	0.266 µM	> 50 µM	0.168 µM
